Measurements as given in patent US8613933B2, “Brachyury polypeptides and methods for use” (The United States of America, as represented by the …, priority 2007, dated 2013).
Peptide text beside a SMILES is read from it.

Columns and labels:
[1] = tested on: normal donor CD19+ B cells; assay type: cell-based, human
Protocol: (§1) Target cells were labeled with 50 μCi of ^111Indium-labeled oxyquinoline (Amersham Health, Silver Spring, Md.) for 15 minutes at room temperature. Target cells in medium containing 10% human AB serum were plated at 3×10^3 cells per well, in 96-well rounded-bottom culture plates. Labeled C1R-A2 or T2 cells were incubated with peptides at the indicated concentrations for 60 minutes at 37° C. in 5% CO2 before the addition of effector cells. No peptide was added when carcinoma cells or CD19+ B cells were used as targets. CD8+ T cells negatively isolated from T-cell cultures were used as effector cells, at various effector-to-target (E:T) cell ratios. […] Supernatants were harvested and the ^111In released was measured by gamma counting. Spontaneous release was determined by incubating the target cells with medium alone, and complete lysis by incubating the target cells with 2.5% Triton X-100. All determinations were performed in triplicate, and standard deviations were calculated. Specific lysis was calculated as follows: specific lysis (%)=[(observed release-spontaneous release)/(complete release-spontaneous release)]×100. […] Cytotoxic lysis of normal B lymphocytes was also analyzed since low expression of Brachyury was detectable in CD19+ cells isolated from various healthy donors.

[2] = tested on: T2 cells; assay type: cell-based, human
Protocol: as §1

[3] = target: T1, HLA-A0201 molecules (Homo sapiens, UniProt P04439, D140Y/D185E/D98H/E176V/E277Q/G131W/G231S/I119V/I121R/I166T/I218V/L300P/L318F/N151K/N90K/P208A/P217A/Q86G/Q94H/R138H/R169H/T345S); assay: HLA-A2 binding assay: HLA-A02 surface expression on T2 cells by flow cytometry; settings: 25 μM peptide, compared to positive and negative control peptides
T1 construct: the T2 (HLA-A2+) transport-deletion mutant cell line; endogenous in cells; host or cells: T2 (HLA-A2+) TAP-deficient cells
Protocol: Binding of Brachyury-specific peptides T-p1, T-p2, T-p3, and T-p4 (SEQ ID NOs: 1-4) to HLA-A0201 molecules was evaluated by flow cytometry analysis of HLA-A02 surface expression on T2 cells. T2 cells (1×10^6) in serum-free Iscove's modified Dulbecco's medium were incubated in the presence of various concentrations of each peptide, in 24-well culture plates at 37° C. with 5% CO2. After 18 hours in culture, T2 cells were harvested, washed with 1× phosphate buffered saline (PBS) (Invitrogen) and stained with 20 μl of a FITC-conjugated anti-HLA-A02-specific monoclonal antibody (MAb) (One Lambda, Inc., Canoga Park, Calif.). A FITC-conjugated IgG2a MAb (BD Biosciences, San Jose, Calif.) was used as an isotype control. […] Results were expressed as mean fluorescence intensity (MFI) collected on a log scale. […] Assuming first order kinetics, the log2 of MFI/MFI0 (MFI is the fluorescence at each time point and MFI0 the initial fluorescence at time 0) was plotted against time (minutes). The decay rate constant was calculated as the slope of the linear regression for each curve and the half-life of each peptide-MHC complex was calculated as […].
In silico-predicted epitopes were then assessed for binding to the MHC molecules in a cell-based assay. […]

[4] = tested on: CD8+ T cells; assay: IFN-γ ELISA of peptide-induced CD8+ T cells stimulated with peptide-pulsed autologous DCs; assay type: cell-based, human; settings: healthy donor, DCs pulsed with 25 μM peptide, three IVS, 24 hours stimulation
From the text: To generate Brachyury-specific cytotoxic T cells (CTLs), peptide-pulsed irradiated (30 Gy) DCs were used as antigen presenting cells (APCs) with autologous, non-adherent cells used as effector cells at an effector-to-APC ratio of 10:1. Cultures were maintained for three initial days in medium containing 10% human AB serum, and four additional days in the same medium supplemented with 20 U/ml of recombinant human IL-2. After a seven-day culture period, designated as an in vitro stimulation (IVS) cycle, cells were re-stimulated as described above.
After three IVS cycles, CD8+ T cells that were negatively isolated by using a CD8+ isolation kit (Miltenyi Biotec, Auburn, Calif.) were stimulated for 24 hours in the presence of peptide-pulsed autologous DCs. Culture supernatants were analyzed for the presence of IFN-γ by using an enzyme linked immunosorbant assay (ELISA) kit (Biosource International Inc., Camarillo, Calif.). Results were expressed in pg/ml.
Irradiated DCs pulsed with 25 μM of each peptide were used to stimulate autologous T cells from a healthy donor's PBMCs. […] Cytotoxic lysis of normal B lymphocytes was also analyzed since low expression of Brachyury was detectable in CD19+ cells isolated from various healthy donors.

Binding to HLA-A02 molecules (cell surface MHC stabilization, MFI) [3] | Compound | Cytotoxic lysis of normal B lymphocytes [1] | Lowest peptide concentration showing cytotoxic responses of T-p2 CTLs [2] [nM] | Induction of antigen-specific CTLs releasing IFN-γ upon stimulation with the specific peptide [4]
 | CC(C)C[C@H](NC(=O)[C@@H](NC(=O)[C@H](CO)NC(=O)[C@@H](NC(=O)CNC(=O)[C@@H]1CCCN1C(=O)[C@H](CC(C)C)NC(=O)[C@H](CC(C)C)NC(=O)[C@@H](N)Cc1c[nH]c2ccccc12)[C@@H](C)O)[C@@H](C)O)C(=O)O [T-p2, WLLPGTSTL] (H-WLLPGTSTL-OH; N-terminus and C-terminus assumed) | No lysis was observed | 1 | 
highest binding to T2 cells | AMYSFLLDFV (listed as Homo sapiens) [T-p4] |  |  | 
highest binding to T2 cells | RLIASWTPV (listed as Homo sapiens) [T-p3] |  |  | induced antigen-specific CTLs able to release IFN-γ
